test: gradient 5% acetonitrile 3 min, to 50% in 2 min, to 85% in 15 min, held 3 min, 100 µL/min; details: column: Zorbax Extend-C18 2.1 x 50 mm; eluents: water / acetonitrile, 0.1% formic acid
Procedure, shortened: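 Values are retention times taken from adduct peaks that software picked and an analyst inspected. The pure standards were run as mixtures of ~100 molecules on HPLC linked to a quadrupole time-of-flight mass spectrometer, in positive and negative ionization mode. A Zorbax Extend-C18 column (2.1 × 50 mm, 1.8 μm) was used at 100 μL/min with water and acetonitrile, each including 0.1% formic acid.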

SMILES	RP-LC retention time
CCC(=O)Nc1ccc2c(c1)CN(C(=O)c1ccccc1F)C(C(=O)N1CCCC1)C2 (centres undefined)	672 s
CCOc1ccc(CNC(=O)C2CCN(Cc3cn(C)c4ccccc34)CC2)cc1OCC	708 s
COc1cc2c(cc1Oc1ccc(OC)c3c1CC1c4c(cc(OC)c(OC)c4-3)CCN1C)CC1c3c(cc(OC)c(OC)c3-2)CCN1C (centres undefined)	616 s
Cc1cc2oc(C(=O)NCC(c3ccccc3)N(C)C)cc(=O)c2cc1C (centres undefined)	639 s
CCn1nc(CNC(=O)c2cnccn2)c2ccccc21	718 s
CNC(=O)C1CCCN(c2nc3ncn(CC(=O)Nc4ccc(F)cc4Cl)c(=O)c3s2)C1 (centres undefined)	650 s
COC(=O)c1c(C)[nH]c(C(=O)N2CCCC(C(=O)N3CCC(C)CC3)C2)c1C (centres undefined)	758 s
Cc1cccc(C(=O)Nc2cc(-c3ccsc3)no2)c1	992 s
O=C(Nc1nc(-c2nc3ccccc3s2)cs1)c1c(F)cccc1F	920 s
CCOc1ccc(NC(=O)c2oc3cc(Br)ccc3c2C)c2cccnc12	800 s
COc1ccc(-c2cc(C(=O)Nc3ccc(F)c(F)c3)sn2)cc1	1180 s
CCOc1ccc(N2CC(c3nc(-c4ccc(Cl)cc4)no3)CC2=O)cc1 (centres undefined)	1080 s
CSc1ccc(CNC(=O)C2CCCN(c3nccn4nc(-c5ccc(C)cc5C)cc34)C2)cc1 (centres undefined)	1030 s
NC(=O)C1CCN(c2ccc3cccc(OCc4ccccc4Cl)c3n2)CC1	593 s
Cc1oc(-c2ccccc2)nc1Cn1nnc(C(=O)Nc2cc(F)ccc2F)c1C	1220 s
CCCn1cnc2cc(CNC(=O)c3ccc(C(C)C)cc3)ccc21	690 s
CN(C)CCNC(=O)CCc1cc2ccccc2[nH]c1=O	569 s
CCn1cc(C(=O)NCc2cccc(C)c2)c2cccnc21	812 s
NC(=O)C1(N2CCCCC2)CCN(c2ncc(S(=O)(=O)c3ccccc3)c(N)n2)CC1	588 s
Cc1ccc(-c2nc3cnccn3c2NCCC(=O)NCc2cccs2)cc1	700 s
CCCCc1ccc(N2CCn3c2nc2c3c(=O)n(CC(=O)O)c(=O)n2C)cc1	826 s
O=C(NCc1ccc(Cl)cc1)C1CCN(c2cnc(N3CCCC3)nc2)CC1	712 s
CN(C)c1nc2ncn3c(=O)n(CC(=O)NCc4ccccc4Cl)nc3c2s1	686 s
COc1cccc(CNC(=O)Cc2cn(C)c3ncccc23)c1OC	669 s
CCOCCOC1CCN(C(=O)c2ccoc2)CC1	679 s
CCN(CC)CCCNc1ncnc2c1cnn2-c1cccc(Cl)c1	648 s
Cc1nc(C)c2c(n1)N(CC1CCCCC1)C(=O)CC2	730 s
COc1ccc2c(c1)CCc1sc(NC(=O)c3ccco3)nc1-2	961 s

SMILES	RP-LC retention time
O=C(c1ccc(N2C(=O)CCS2(=O)=O)cc1Cl)N1CCN(c2ccccn2)CC1	583 s
COc1cc(C(CC(=O)NC2CCCC2)N2Cc3ccccc3C2=O)cc(OC)c1OC (centres undefined)	755 s
O=C(NCC1CCN(C(=O)Oc2ccccc2)CC1)C(=O)Nc1cccnc1	610 s
COc1ccc(-c2noc(C3CCCN3C(=O)Nc3ccccc3Br)n2)cc1 (centres undefined)	1070 s
Clc1cccc(CN2CCN(c3cnn4c(C5CC5)nnc4c3)CC2)c1	750 s
COc1cc(NC(=O)Cn2c(C)cc(-c3nnc(C)o3)c2C)cc(OC)c1	748 s
Cc1nc2cccnc2n1C1CCN(C(=O)Nc2ccccc2Br)CC1	637 s
CCOc1nc2ccccc2nc1N1CCCC(C(=O)N2CCN(c3ccc(OC)cc3)CC2)C1 (centres undefined)	1190 s
CC(C)c1ccc(NC(=O)Cn2cnc3nc(N4CCC(C(=O)NC5CC5)CC4)sc3c2=O)cc1	748 s
COc1ccc(C2Cn3nnc(-c4nc(-c5cccc(Br)c5)no4)c3CO2)cc1 (centres undefined)	1170 s
c1nc2c(c(NCc3ccc4c(c3)OCO4)n1)CCC2	606 s
Cc1nc(-c2ccccc2F)sc1C(=O)NC(C)C	888 s
CC1Oc2ccccc2OC1C(=O)Nc1cccc(-c2cn3c(n2)SCC3)c1 (centres undefined)	656 s
Cc1oc(C(C)C)nc1C(=O)NCc1ccncc1	590 s
COCCNC(=O)c1csc(N2CCN(c3ccc(OC)cc3)CC2)n1	767 s
O=C(Cn1cccc1-c1nnc(-c2ccccc2)o1)N1CCN(Cc2ccc3c(c2)OCO3)CC1	709 s
CCn1c(=O)c(NCc2ccc(F)cc2Cl)nc2ccncc21	661 s
O=C(CN1CCCC(COCc2ccccc2)C1)N1CCN(c2ccccc2)CC1 (centres undefined)	620 s
O=C(Cn1nc(C2CC2)c2cnn(-c3ccc(F)cc3)c2c1=O)NCC1CCCO1 (centres undefined)	729 s
CC1=CC(C)(C(Cl)(Cl)Cl)C(C)=C/C1=N/O (centres undefined)	1100 s
CCc1ccccc1NC(=O)Cn1ncc2c(N3CCN(c4ccccn4)CC3)ncnc21	608 s
O=C(CN1C(=O)C2CCCCN2c2ccc(S(=O)(=O)N3CCCCC3)cc21)NCc1ccccc1 (centres undefined)	988 s
COc1ccccc1Cc1noc(C2CN(C(=O)CCc3c(C)noc3C)C2)n1	738 s
O=C(c1cnccn1)N1CCC2(CC1)CC(OCC1CC1)CCO2 (centres undefined)	694 s
COc1cccc(N2CCN(c3ccnc(SCC(=O)Nc4cccc(Cl)c4)n3)CC2)c1	827 s
CC(NC(=O)Cc1nnc2cc(-c3nc(C4CC4)no3)ccn12)c1ccc(F)cc1 (centres undefined)	780 s
CC(=O)N1CCC2(CC1)OC(=O)C(C)=C2C(=O)NCCC1=CCCCC1	738 s

The next lines start with the values.

RP-LC retention time	SMILES
915 s	CCOc1ccccc1NC(=O)N1C[C@@H]2CN(S(=O)(=O)c3ccc(C)cc3)C[C@H](C1)O2
664 s	CC(C)c1ccc(CN2CC(c3nc(CCN(C)S(C)(=O)=O)no3)C2)cc1
975 s	COC(=O)c1ccc2c(=O)n(-c3ccc(C)c(F)c3)c(N3CCOCC3)nc2c1
842 s	Cc1ccc(Cl)cc1NC(=O)C1CCCN1S(=O)(=O)c1cc2c(cc1C)NC(=O)CO2 (centres undefined)
620 s	CCc1cc(=O)n(Cc2ncc(C)c(OC)c2C)c(N2CCOCC2)n1
604 s	COc1ccc(Cl)cc1NC(=O)N1CCc2nc[nH]c2C1
983 s	COc1ccc(N2CCN(c3cc(SCC(=O)Nc4c(C)cc(C)cc4C)ncn3)CC2)cc1
599 s	Cc1nnc(N2CCC(C(=O)N3CCC(C(N)=O)CC3)CC2)c2nn(-c3ccccc3)c(C)c12
604 s	Cc1oc(-c2[nH]ncc2C(=O)N(C)C)cc1S(=O)(=O)N1CCOCC1
644 s	CCn1c(CNC(=O)C2CCC2)nc2c1CN(S(=O)(=O)c1ccc(F)cc1)CC2
822 s	CCOC(=O)c1cc(S(=O)(=O)N2CCCC2C(=O)N2CCCCCC2)cn1C (centres undefined)
794 s	Cc1ccnc(NC(=O)C2CCN(S(=O)(=O)c3ccc4c(c3)sc(=O)n4C(C)C)CC2)c1
770 s	Cc1cc(C)cc(NC(=O)C2CC(=O)N(c3n[nH]c4cccc(F)c34)C2)c1 (centres undefined)
560 s	O=C(NCc1cccnc1)c1cccn1-c1nnc(N2CCOCC2)s1
1200 s	CCc1noc(-c2ccc(SCC(=O)N3CCCCC3C)nc2)n1 (centres undefined)
617 s	Cc1cc(C)c2c(N3CCSCC3)nc(C(=O)N3CCCC3)nc2n1
738 s	CCN1CCCn2cc(S(=O)(=O)Nc3ccc(F)c(Cl)c3)cc2C1=O

RP-LC retention time	SMILES
639 s	O=C(NC1CCNCC1)c1[nH]ncc1NC(=O)c1c(Cl)cccc1Cl
754 s	Cc1cc(C)n(-c2nc3cc(Cl)ccc3nc2N2CCN(c3ccccn3)CC2)n1
707 s	Cc1[nH]nc(-c2ccc(S(=O)(=O)N3CCOCC3)o2)c1C
969 s	Cc1ccc(S(=O)(=O)N2CCCC2C(=O)Nc2ccc(C)cc2C)cc1 (centres undefined)
608 s	CCCC(=O)Nc1ccc2c(c1)nc(CN1CCN(S(C)(=O)=O)CC1)n2CC
618 s	Cc1nn(-c2cc(N3CCOCC3)ncn2)c(C)c1CCC(=O)N1CCN(c2ccccn2)CC1
904 s	CC(=O)N1CCc2sc(C(=O)N3CCN(c4cc(C)ccc4C)CC3)cc2C1
766 s	Cc1ccc(CNC(=O)CN2CCN(Cc3ccc(F)cc3)C2=O)o1
676 s	O=C(NC1CCN(c2cc(-c3ccccc3)[nH]n2)CC1)c1ccoc1
884 s	Cc1cc(NC(=O)Cn2nc(N3CCOCC3)c3ccccc3c2=O)ccc1Br
657 s	CC(C)N1CCC(F)(c2nc(-c3ccccc3)no2)CC1
916 s	Cc1ccc(C(=O)N2CCCC(COc3ccc(C(=O)NC(C)C)cc3)C2)c(C)c1 (centres undefined)
716 s	Cc1ccc(-c2ccc(N3CCN(c4ccccn4)CC3)nn2)cc1S(=O)(=O)N1CCCCCC1
612 s	CC1C(=O)NCCN1C(=O)c1cc(Cl)ccc1Cl (centres undefined)
656 s	CCOC(=O)C1=C(CN2CCN(C3CCCCC3)CC2)NC(=O)NC1c1ccc(OC)cc1 (centres undefined)
845 s	CCCn1cc(S(=O)(=O)Nc2cccc(C)c2)c2cccnc21
575 s	Cc1oncc1CN1CCN(C(=O)c2c(F)cccc2Cl)CC1

Source: the METLIN SMRT retention time set (Domingo-Almenara et al. 2019)
